Patent US11840686B2, “Modulation of prekallikrein (PKK) expression” (Ionis Pharmaceuticals, Inc., priority 2013, dated 2023)
Strand notation (5' to 3'): a small letter for the sugar, then the base; units joined by * are phosphorothioate-linked, units joined directly phosphodiester-linked; [ ] holds rarer units or linkages, { } end groups; capitals alone tell only the bases. e = 2'-O-(2-methoxyethyl) (MOE); [5mC] = 5-methylcytosine; d = 2'-deoxy (DNA)

What follows are substances tested on human PKK mRNA (assay: Antisense inhibition of human PKK mRNA in HepaRG cells, 3,000 nM (Example 1)). Details: Table 1; PKK mRNA, HepaRG cells, 3,000 nM, electroporation, ~24 h, relative to untreated control cells.
Type: cell-based
How it was run: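 HepaRG cells, 20,000 per well, were electroporated with 3,000 nM 5-10-5 MOE gapmer (phosphorothioate, 5-methylcytosine). After about 24 h, PKK mRNA was measured by qRT-PCR with primer probe set RTS3454 and normalised to RIBOGREEN total RNA. Values are percent inhibition versus untreated cells.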

First: 530954 (antisense eT*eG*eG*eA*eA*dG*dA*dA*dA*dA*d[5mC]*dT*dG*dA*dA*eT*eA*eG*e[5mC]*eA) [compound 530954]
Second: 530974 (antisense eT*eT*e[5mC]*eT*eT*dG*dA*dG*dG*dA*dG*dT*dA*dG*dA*eG*eG*eA*eA*e[5mC]) [compound 530974]
The “% inhibition” value of the first is higher: 47% for the first, 18% for the second.

Going from “530968 (antisense e[5mC]*eA*eA*eG*eA*dT*dG*d[5mC]*dT*dG*dG*dA*dA*dG*dA*eT*eG*eT*eT*e[5mC]) [compound 530968]” to “530964 (antisense e[5mC]*eT*eT*e[5mC]*eA*dG*dT*dG*dA*dG*dA*dA*dT*d[5mC]*d[5mC]*eA*eG*eA*eT*eT) [compound 530964]”, the “% inhibition” value rises from 18% to 44%.

First: 531006 (eG*e[5mC]*eT*eT*eG*dT*dT*dT*dT*dT*dG*dT*dT*dG*dT*eG*e[5mC]*eA*eG*eA; antisense) [compound 531006]
Second: 530943 (antisense eA*eT*e[5mC]*e[5mC]*eA*d[5mC]*dA*dG*dG*dA*dA*dA*d[5mC]*dT*dG*eT*eA*eG*e[5mC]*eA) [compound 530943]
The “% inhibition” value of the first is lower: 49% for the first, 56% for the second.

Going from “530962 (antisense e[5mC]*e[5mC]*eT*eT*eT*dT*dT*dT*dG*dG*d[5mC]*dA*dT*dT*d[5mC]*eT*eT*e[5mC]*eA*eA) [compound 530962]” to “530972 (antisense eG*eT*eA*eG*eA*dG*dG*dA*dA*d[5mC]*dT*dT*dG*dG*dT*eG*eT*eG*e[5mC]*e[5mC]) [compound 530972]”, the “% inhibition” value falls from 64% to 42%.

Compared with “530973 (antisense eG*eA*eG*eG*eA*dG*dT*dA*dG*dA*dG*dG*dA*dA*d[5mC]*eT*eT*eG*eG*eT) [compound 530973]”, “530995 (eA*eG*eT*e[5mC]*eT*d[5mC]*dT*dT*dG*dG*d[5mC]*dA*dA*dA*d[5mC]*eA*eT*eT*e[5mC]*eA; antisense) [compound 530995]” is lower in “% inhibition” value: 52% for the first, 49% for the second.

Going from “530983 (antisense eA*eT*eG*eG*e[5mC]*dA*dG*dG*dG*dT*dT*d[5mC]*dA*dG*dG*eT*eA*eA*eA*eG) [compound 530983]” to “530991 (eA*eT*eT*e[5mC]*eA*dA*dT*dT*d[5mC]*dT*dT*d[5mC]*dT*d[5mC]*d[5mC]*eT*e[5mC]*e[5mC]*eA*eA; antisense) [compound 530991]”, the “% inhibition” value rises from 9% to 43%.

Going from “530934 (antisense e[5mC]*eT*eT*e[5mC]*eT*dT*dG*dG*dA*dG*dG*dT*dG*dA*dG*eT*e[5mC]*eT*e[5mC]*eT) [compound 530934]” to “530939 (antisense eA*eA*e[5mC]*eA*eA*dG*dG*dA*dA*dA*dT*dG*dA*dA*dA*eT*eA*eA*eG*eT) [compound 530939]”, the “% inhibition” value falls from 54% to 0%.

Compared with “530947 (antisense eG*eA*eA*eG*e[5mC]*dT*dA*d[5mC]*dA*dT*d[5mC]*d[5mC]*d[5mC]*d[5mC]*dA*e[5mC]*e[5mC]*eT*e[5mC]*eT) [compound 530947]”, “530980 (antisense eT*eT*eG*e[5mC]*eA*dG*dG*dT*dT*dA*dA*dA*dA*dG*dG*e[5mC]*eT*eA*eT*eA) [compound 530980]” is higher in “% inhibition” value: 27% for the first, 29% for the second.

First: 530976 (antisense eA*eT*eA*eT*eG*dG*dT*dG*dT*dT*dT*dT*d[5mC]*dT*dT*eG*eA*eG*eG*eA) [compound 530976]
Second: 530949 (antisense eG*eG*eT*eG*eT*dA*d[5mC]*dA*dT*dG*dG*dA*dA*dG*d[5mC]*eT*eA*e[5mC]*eA*eT) [compound 530949]
The “% inhibition” value of the first is lower: 26% for the first, 31% for the second.

Same assay, conditions: Table 2; PKK mRNA, HepaRG cells, 3,000 nM, electroporation, ~24 h, relative to untreated control cells

First: 531015 (eT*eA*eT*eG*eA*dG*dT*dG*dA*d[5mC]*d[5mC]*d[5mC]*dT*d[5mC]*d[5mC]*eA*e[5mC]*eA*e[5mC]*eA; antisense) [compound 531015]
Second: 531065 (antisense e[5mC]*eT*eT*eT*eG*dG*dT*dG*dT*dA*dG*dA*d[5mC]*dA*d[5mC]*e[5mC]*eA*eG*eG*eT) [compound 531065]
The “% inhibition” value of the first is lower: 52% for the first, 57% for the second.

Compared with “531049 (antisense eT*eT*eA*eT*eT*dT*dT*dA*dT*dA*dA*dT*d[5mC]*dT*dT*eG*eA*eT*eA*eT) [compound 531049]”, “531059 (antisense eA*e[5mC]*eA*eT*eT*d[5mC]*d[5mC]*dA*dT*dT*dG*dT*dG*dT*dT*eT*eG*e[5mC]*eA*eA) [compound 531059]” is higher in “% inhibition” value: 2% for the first, 55% for the second.

Compared with “531008 (eT*eG*e[5mC]*eT*eG*dG*dA*dA*dG*dA*dT*dG*dT*dT*d[5mC]*eA*eT*eG*eT*eG; antisense) [compound 531008]”, “531070 (e[5mC]*eT*eG*eT*eG*dT*dT*dT*dT*d[5mC]*dT*d[5mC]*dT*dA*dA*eA*eA*eT*e[5mC]*e[5mC]; antisense) [compound 531070]” is higher in “% inhibition” value: 51% for the first, 68% for the second.

First: 531040 (antisense eT*e[5mC]*e[5mC]*eT*eT*d[5mC]*dG*dA*dG*dA*dA*dG*d[5mC]*d[5mC]*d[5mC]*e[5mC]*eA*eT*e[5mC]*e[5mC]) [compound 531040]
Second: 531052 (antisense eA*eG*eA*e[5mC]*e[5mC]*dA*dT*d[5mC]*d[5mC]*dG*dT*dT*dG*dG*dG*eT*eT*eA*eT*eT) [compound 531052]
The “% inhibition” value of the first is lower: 27% for the first, 60% for the second.

Going from “531063 (antisense eG*eA*e[5mC]*eA*e[5mC]*d[5mC]*dA*dG*dG*dT*dT*dG*d[5mC]*dT*d[5mC]*e[5mC]*e[5mC]*eT*eG*e[5mC]) [compound 531063]” to “531037 (antisense eA*eA*e[5mC]*eA*eG*dT*dT*dG*dG*dT*dA*dT*dA*dA*dA*eT*eT*eG*eT*eG) [compound 531037]”, the “% inhibition” value falls from 51% to 35%.

Same assay, conditions: Table 3; HepaRG cells, electroporation with 3,000 nM antisense oligonucleotide, approx. 24 hours; PKK mRNA by RT-PCR (RTS3454), relative to untreated control cells

First: 531093 (eT*eT*e[5mC]*eT*e[5mC]*d[5mC]*dT*dG*dG*d[5mC]*dT*d[5mC]*dA*dG*dA*eA*eG*e[5mC]*eT*e[5mC]; antisense) [compound 531093]
Second: 531127 (antisense e[5mC]*eA*eG*eA*eG*d[5mC]*d[5mC]*dT*dT*dG*dA*dT*d[5mC]*dA*dG*eA*eA*eT*eA*eA) [compound 531127]
The “% inhibition” value of the first is higher: 60% for the first, 12% for the second.

Going from “531155 (antisense e[5mC]*eT*eT*e[5mC]*eT*dT*dG*dT*d[5mC]*dT*d[5mC]*dA*dG*dA*dT*eT*eA*e[5mC]*e[5mC]*eA) [compound 531155]” to “531105 (e[5mC]*eT*e[5mC]*e[5mC]*eT*d[5mC]*d[5mC]*d[5mC]*d[5mC]*dA*dG*dG*d[5mC]*dT*dG*e[5mC]*eT*e[5mC]*e[5mC]*eT; antisense) [compound 531105]”, the “% inhibition” value falls from 79% to 16%.

First: 531120 (antisense eA*eA*eA*eT*eA*dA*dA*dA*dG*d[5mC]*dA*d[5mC]*dT*d[5mC]*dA*eG*eA*e[5mC]*eT*eG) [compound 531120]
Second: 531103 (eA*e[5mC]*eT*e[5mC]*eA*dT*dT*dG*d[5mC]*d[5mC]*dT*dT*dA*dA*d[5mC]*eT*e[5mC]*eA*eG*eG; antisense) [compound 531103]
The “% inhibition” value of the first is lower: 0% for the first, 40% for the second.

“531154 (antisense eA*eT*eG*eA*eA*dG*dT*dA*dA*dG*dA*dT*dG*d[5mC]*dT*eT*eA*eA*eA*eA) [compound 531154]” was tested, and the “% inhibition” value was 16%.

Same assay, conditions: Table 4; HepaRG cells, electroporation with 3,000 nM antisense oligonucleotide, approx. 24 hours; PKK mRNA by RT-PCR (RTS3454), relative to untreated control cells

Compared with “531218 (eG*eA*eT*eA*eA*dT*dT*d[5mC]*dT*dT*dT*dT*d[5mC]*dA*d[5mC]*eA*eG*eA*e[5mC]*eA; antisense) [compound 531218]”, “531214 (eT*eT*eT*eT*eT*d[5mC]*dT*dT*dT*dA*dA*dA*dT*dT*dT*eT*eG*e[5mC]*eT*eA; antisense) [compound 531214]” is lower in “% inhibition” value: 72% for the first, 37% for the second.

Compared with “531206 (eG*eA*eA*eA*eT*dG*dT*d[5mC]*dT*dA*dG*d[5mC]*dA*dT*dT*eT*eT*e[5mC]*eT*eA; antisense) [compound 531206]”, “531173 (antisense eA*eA*eA*eA*eT*dA*dA*d[5mC]*dT*dT*d[5mC]*dA*d[5mC]*dT*dA*eG*eA*eG*e[5mC]*eT) [compound 531173]” is lower in “% inhibition” value: 28% for the first, 22% for the second.

First: 531229 (e[5mC]*eT*eT*e[5mC]*eA*dA*dA*dG*d[5mC]*d[5mC]*dA*dG*d[5mC]*dA*dG*eT*eG*eT*eA*eA; antisense) [compound 531229]
Second: 531237 (eG*eT*eG*eG*eA*dA*dT*dG*dT*d[5mC]*dA*dT*dG*dG*d[5mC]*eA*eA*eT*eT*eT; antisense) [compound 531237]
The “% inhibition” value of the first is higher: 69% for the first, 56% for the second.

First: 531180 (antisense e[5mC]*e[5mC]*eT*e[5mC]*eT*dT*dA*dA*dG*dT*d[5mC]*dA*d[5mC]*d[5mC]*dA*eT*eA*eG*eA*e[5mC]) [compound 531180]
Second: 531182 (antisense eA*eT*eA*eA*eT*d[5mC]*dA*dT*dG*dA*dT*dT*dT*dA*dT*eT*eT*eT*eG*e[5mC]) [compound 531182]
The “% inhibition” value of the first is higher: 45% for the first, 34% for the second.

Compared with “531186 (e[5mC]*e[5mC]*eA*eT*eT*dA*d[5mC]*dT*d[5mC]*dT*d[5mC]*dA*dA*dG*d[5mC]*eT*e[5mC]*e[5mC]*eA*e[5mC]; antisense) [compound 531186]”, “531166 (antisense eA*eG*eA*e[5mC]*eA*dG*dT*dA*dA*dA*d[5mC]*dA*dA*dA*dA*eT*e[5mC]*eA*eG*eG) [compound 531166]” is lower in “% inhibition” value: 75% for the first, 12% for the second.

Compared with “531168 (antisense eA*e[5mC]*e[5mC]*e[5mC]*e[5mC]*dA*dA*d[5mC]*dA*dG*dA*d[5mC]*dA*dG*d[5mC]*e[5mC]*e[5mC]*eA*e[5mC]*e[5mC]) [compound 531168]”, “531209 (eT*eG*eG*eA*eT*dT*d[5mC]*dA*dT*dT*dT*dT*d[5mC]*dT*dG*e[5mC]*eA*eA*eA*eT; antisense) [compound 531209]” is higher in “% inhibition” value: 55% for the first, 81% for the second.

For “531208 (eT*e[5mC]*e[5mC]*eA*eG*dA*dA*dT*dA*d[5mC]*dT*dG*d[5mC]*d[5mC]*d[5mC]*e[5mC]*eA*eT*e[5mC]*eT; antisense) [compound 531208]”, the “% inhibition” value was 23%.
